Assay results taken from paper PMC9406419, “OATD-02 Validates the Benefits of Pharmacological Inhibition of Arginase 1 and 2 in Cancer” (Cancers, 2022).

Experiments:
CT26 tumours = experiment: Syngeneic CT26 model, combination with epacadostat and anti-PD-L1 antibody; format: in vivo, mouse; settings: suboptimal doses: OATD-02 50 mg/kg PO BID; epacadostat 30 mg/kg PO BID; anti-PD-L1 2.5 mg/kg IP days 8, 10, 12, 14, 16
Experimental: CT26 and K562 in vivo experiments were conducted at Molecure SA. All experimental procedures were approved by the 1st Local Ethics Committee in Warsaw (Poland). For the syngeneic CT26 model, 7–8-week old BALB/c females (n = 9–18 per group, BALB/cAnNCrl, Charles River Laboratories) were injected subcutaneously in the right flank with 5 × 10^5 CT26 cells. […] Anti-PD-L1 antibody (InVivoPlus anti-mouse PD-L1, clone 10F.9G2, BioXCell, lot 615416D1) was injected intraperitoneally at 2.5 mg/kg on days: 8, 10, 12, 14 and 16 post tumour cells inoculation. Control groups received vehicle (saline) or isotype antibody (InVivoPlus rat IgG2b, anti-KLH, BioXCell, lot 629816D1). For the xenograft K562 model, 7–8 week-old athymic nude mice (n = 8–11 per group, Crl:NU(NCr)-Foxn1^nu, Charles River Laboratories) or NK cell-deficient Fox Chase SCID Beige mice (n = 10–12 per group, CB17.Cg-Prkdc^scidLyst^bg-J/Crl, Charles River Laboratories) were injected subcutaneously in the right flank with 1 × 10^7 K562 cells. […] Tumour volume measured by a digital calliper (width × length × depth × π/6) was recorded three times per week. Animals were euthanized when tumours were necrotized or volume exceeded 2000 mm^3. Renca in vivo efficacy study was performed at Crown Biosciences Inc. (Taicang, China). […] Tumour volumes (length × width^2 × 0.5) were measured twice per week. […]

recombinant human ARG1 = molecular target: T1, recombinant human ARG1 (Homo sapiens, UniProt P05089); experiment: Recombinant arginase inhibition assay (colorimetric urea detection), ARG1; format: biochemical; settings: recombinant human ARG1, 10 mM L-arginine, 37 °C, 1 h, pH 7.4
T1 construct: made in house; host or cells: E. coli
T1 sequence (P05089 1-322): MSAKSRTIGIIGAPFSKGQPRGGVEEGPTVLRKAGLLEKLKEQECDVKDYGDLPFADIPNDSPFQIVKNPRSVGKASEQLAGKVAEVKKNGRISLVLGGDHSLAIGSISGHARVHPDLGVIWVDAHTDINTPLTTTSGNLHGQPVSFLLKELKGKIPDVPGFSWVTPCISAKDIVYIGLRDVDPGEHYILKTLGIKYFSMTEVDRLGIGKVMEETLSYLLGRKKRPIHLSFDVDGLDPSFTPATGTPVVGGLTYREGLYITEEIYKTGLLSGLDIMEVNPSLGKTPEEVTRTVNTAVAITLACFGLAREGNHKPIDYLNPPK
Experimental: The enzymatic reaction was carried out at 37 °C for 1 h in the assay buffer (100 mM sodium phosphate buffer, 130 mM NaCl, pH 7.4) with the addition of 1 mg/mL BSA in the presence of 200 µM MnCl2 (enzyme cofactor), 10 mM (for ARG1) or 20 mM (for ARG2) of L-arginine hydrochloride (enzyme substrate), and serial dilutions of the test compounds. The inhibition of the arginase activity was determined by colorimetric detection of produced urea, as previously described [29] with minor changes. Briefly, 150 µL of freshly prepared developing reagent (2 mM o-phthaldialdehyde (OPA), 2 mM N-(1-naphthyl)ethylenediamine dihydrochloride (NED), 50 mM boric acid, 1 M sulfuric acid, 0.03% Brij-35) was added to each well, incubated for 20 min at RT, then the absorbance at 515 nm was measured. Normalized values were fitted to a four-parameter equation using GraphPad Prism and IC50 values were determined.

K562 cells = experiment: Long-term culture of OATD-02-treated K562 cells (viable cell count, propidium iodide); format: cell-based, human; settings: different concentrations, 14 days, medium not replaced
Experimental: CT26.WT (CRL-2638, CT26, mouse colon carcinoma) and K562 (CCL-243, human CML) cell lines were purchased from the ATCC®. Adherent CT26 and non-adherent K562 cells were maintained in the RPMI-1640 medium (Gibco, Life Technologies, Carlsbad, CA, USA) supplemented with 10% foetal bovine serum (FBS, #10270106, ThermoFisher/Gibco™) and 100 U/mL penicillin G and 100 µg/mL streptomycin (Antibiotic-Antimycotic, #15240062, Gibco®) at 37 °C in a humidified 5% CO2 atmosphere. Full-grown monolayers of CT26 cells were trypsinized for 15 min (0.25% Gibco® Trypsin-EDTA), harvested, and passaged several times for expansion. Both cell lines were confirmed at the last used passage to be mycoplasma-free (Mycoalert Detection Kit, Lonza, Basel, Switzerland). The Renca (murine renal adenocarcinoma) cell line was maintained for the in vivo study conducted at Crown Biosciences (Beijing, China). A monolayer culture was grown in DMEM medium supplemented with 10% FBS at 37 °C and 5% CO2. The cells were harvested in exponential growth phase and used for inoculation. […] To assess the antiproliferative effects of OATD-02, the culture medium has not been replaced during this period and the cell density/viability (propidium iodide staining) was determined daily. […]

[1] = Tolerability in animal models; format: in vivo

Compound: CN(C)C[C@@H]1CC[C@@H](CCB(O)O)C[C@]1(N)C(=O)O [OATD-02]
- TGI, CT26 tumor growth inhibition - day 24 (CT26 tumours): 33%
- IC50 (recombinant human ARG1): 0.017 µM
- survival of K562 cells in long-term culture (K562 cells): dying faster in a dose-dependent manner
- safety and tolerability [1]: safe and well tolerated
